Active and inactive are the calls of the source. No cut-off for these calls is given here.

Series [1] relates to Vero. The series can be described thus: Cytotoxicity against african green monkey Vero cells at 250 ug/ml. It is filed as cell-based. The note with it: chlorocebus sabaeus.
Series [2] concerns Human alphaherpesvirus 1. The series can be described thus: Antiviral activity against HSV1 infected in african green monkey Vero cells assessed as suppression of plaque formation at 40 ug/ml by plaque-reduction assay. It is filed as functional, organism-based.

For the molecule `O=c1c(O[C@@H]2O[C@H](CO)[C@@H](O)[C@H](O)[C@H]2O)c(-c2ccc(O)c(O)c2)oc2cc(O)cc(O)c12` [ISOQUERCETIN], the Activity result in series [1] is recorded as “Toxic”. Also, in series [2], the outcome was Active.

Source of the values: ChEMBL document CHEMBL1150049, “Isolation and characterization of an antiviral flavonoid from Waldsteinia fragarioides” (J Nat Prod, 1992).
